# Source: article PMC6145916, “Interaction of mitochondrial fission factor with dynamin related protein 1 governs physiological mitochondrial function in vivo” (Scientific Reports, 2018)
# Where no end group is shown, it is not given here.
# Test system: E17 primary cortical neurons
# Assay: Mitochondrial morphology (Tom20), primary cortical neurons
# Format: cell-based, rat
# Conditions: 1 µM P259, two-hour treatment; n = 3, 10 images each
# Protocol: Bottom, quantification of the form factor (degree of branching) and aspect ratio (major/minor axis length). At least 10,000 mitochondrial fragments were analyzed for each condition. Mitochondrial reactive oxygen species production (MitoSox Red) (b) and membrane potential (TMRM) (c) after overnight treatment with indicated concentrations of peptide (n = 3, with 3 replicates). […] Overlay of live microscopy imaging at time 0 (green) and 150 (red) seconds. […] An estimation of the % mobile mitochondria from the Pearson coefficient of each set of images. Data are mean ± s.e.
# Human neuroblastoma SH-SY5Y cells purchased from ATCC were cultured in a 50/50 mixture of […]
# using SH-SY5Y cells were carried out in the same growth medium with the exception of using […]
# Wild-type and MFF knockout mouse embryonic fibroblast (MEF) cells were generously provided by Professor David Chan. […]
# an NCBI protein blast of the P259 sequence ([…]) was performed across the human genome database and the top 75 gene query hits were recorded.7 The orthologs of each available gene were obtained from the Ensembl database.8 Of the resulting 75 human gene hits, 37 had […]
# The effect of peptides on GTPase activity of Drp1 was measured by incubating recombinant Drp1 […]
# for 1 hour at 37 °C. GTPase activity was measured using a colorimetric GTPase assay kit (Novus Biologicals, CO, USA) as instructed by the manufacturer. […]
substance,measurement,value
YGRKKRRQRRRGSGIIQLPEIVVV-NH2 (C-terminus assumed) [P259],mitochondrial morphology,more elongated and branched mitochondria
